The METLIN SMRT retention time set (Domingo-Almenara et al. 2019)

Assay: gradient 5% acetonitrile 3 min, to 50% in 2 min, to 85% in 15 min, held 3 min, 100 µL/min
Details: column: Zorbax Extend-C18 2.1 x 50 mm; eluents: water / acetonitrile, 0.1% formic acid
Method in brief: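 The mobile phases were water and acetonitrile, each with 0.1% formic acid, pumped at 100 μL/min through a Zorbax Extend-C18 column (2.1 × 50 mm, 1.8 μm). Pure standards were injected as mixtures of ~100 molecules and detected by a quadrupole time-of-flight mass spectrometer in positive and negative ionization mode. Retention time came from computationally picked adduct peaks, each inspected by hand.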

Compared with `CC(C)(Oc1ccc(Cl)cc1)C(=O)Nc1c(-c2ccccc2)nc2ccccn12`, `Cc1ccc(Nc2c(-c3ccc(Cl)cc3)nc3cnccn23)c(C)c1` is higher in RP-LC retention time: 783 s for the first, 1080 s for the second.

Compared with `CC(C)Cc1ccc(S(=O)(=O)N2CCc3c(c(-c4nnc(-c5ccc(F)cc5)o4)nn3C)C2)cc1`, `COc1cccc(-n2ccc(=O)c(-c3nc(-c4ccc(F)cc4)no3)n2)c1` is lower in RP-LC retention time: 1180 s for the first, 898 s for the second.

Compared with `CC1C(=O)NCCN1C(=O)CSc1ccc(Cl)cc1` (centres undefined), `Cc1cn(C)c(CC(=O)Nc2ccc(Cl)cc2)c1C(=O)O` is higher in RP-LC retention time: 648 s for the first, 804 s for the second.

Compared with `Cc1noc(-c2ccc(OC3CN(C(=O)C(C)Oc4ccccc4)C3)cc2)n1` (centres undefined), `Cc1ccc(-c2nc(C3CCN(S(=O)(=O)c4ccccc4F)CC3)no2)cc1` is higher in RP-LC retention time: 899 s for the first, 1170 s for the second.

Going from `O=C(c1cc(-c2cccnc2)n[nH]1)N1CCCC(C(=O)N2CCN(C(=O)c3ccco3)CC2)C1` (centres undefined) to `CCOC(=O)c1nc(N2CCN(C(=O)c3ccco3)CC2)c2ccccc2n1`, the RP-LC retention time rises from 556 s to 665 s.

Going from `Cc1ccc(Nc2c(-c3cccc(O)c3)nc3cnccn23)c(Br)c1` to `Cc1ccc(-c2nc3cnccn3c2NCCC(=O)N2CCC(N3CCCCC3)CC2)cc1`, the RP-LC retention time falls from 843 s to 598 s.

First: Cc1noc2ncn(CC(=O)Nc3ccccc3F)c(=O)c12
Second: Cc1noc(-c2cc(=O)n(CC(=O)Nc3c(C)cccc3C)c3ccccc23)n1
The RP-LC retention time of the first is lower: 732 s for the first, 839 s for the second.

Compared with `Cc1[nH]c2ccccc2c1S(=O)(=O)CCNC(=O)Nc1cccs1`, `CC(=O)Nc1ccc(C(=O)NCCNC(=O)Nc2cccs2)cc1` is lower in RP-LC retention time: 683 s for the first, 600 s for the second.

First: COc1cc(NC(=O)c2cn3c(n2)CN(CC(C)C)CC3)cc(OC)c1
Second: CCCc1noc(-c2ccc(=O)n(CC(=O)Nc3cc(C)cc(C)c3)c2)n1
The RP-LC retention time of the first is lower: 818 s for the first, 902 s for the second.

Compared with `O=C(c1ccc(F)cc1)N1CCC(CCNS(=O)(=O)c2cc(F)ccc2F)CC1`, `CC(C(=O)Nc1c(F)cccc1F)C1CCN(C(=O)Nc2ccc(Cl)cc2)CC1` (centres undefined) is lower in RP-LC retention time: 870 s for the first, 865 s for the second.

Going from `Cn1cc(CC(=O)NCc2cccc(F)c2)c2cccnc21` to `CCOc1ccccc1NC(=O)c1cn(C)c2ncccc12`, the RP-LC retention time rises from 669 s to 927 s.

Going from `Cc1ccc(-c2noc(-c3ccc(N4CCN(c5ncccn5)CC4)nc3)n2)cc1` to `CCc1nc2cc(-c3noc(-c4cccnc4)n3)ccc2o1`, the RP-LC retention time falls from 1280 s to 912 s.

Compared with `COc1cc(-c2noc(C3CC(=O)N(c4ccc(C)cc4)C3)n2)cc(OC)c1OC` (centres undefined), `COc1ccc(Nc2c(-c3ccc(N4CCOCC4)cc3)nc3ncccn23)cc1OC` is lower in RP-LC retention time: 902 s for the first, 619 s for the second.

Compared with `O=C(CC(=O)Nc1ccc(F)cc1Cl)Nc1ccc2nc3n(c(=O)c2c1)CCCCC3`, `Cc1cc(Cl)ccc1NS(=O)(=O)c1ccc2c(c1)NC(=O)C(C(=O)N1CCCC1)S2` (centres undefined) is higher in RP-LC retention time: 814 s for the first, 827 s for the second.

First: O=C1COc2cc(S(=O)(=O)N3CCCC3C(=O)N3CCOCC3)c(Cl)cc2N1 (centres undefined)
Second: Cc1cc2c(cc1S(=O)(=O)N1CCC(C(=O)NCc3ccc(Cl)cc3)CC1)OCC(=O)N2
The RP-LC retention time of the first is lower: 628 s for the first, 786 s for the second.

Going from `COC(=O)c1c(C)[nH]c(C(=O)N2CCC(CC(=O)NCc3cccc(Cl)c3)CC2)c1C` to `COc1ccc(CC(=O)NCC2CCN(C(=O)c3cc4ccccc4o3)CC2)cc1OC`, the RP-LC retention time falls from 770 s to 703 s.

Compared with `COc1ccc(C(=O)NC2CCN(c3cc(-c4cccs4)[nH]n3)C2)cn1` (centres undefined), `CC(=O)N1CCc2cc(-c3ccc(C(=O)NCCc4cccs4)cc3)ccc21` is higher in RP-LC retention time: 676 s for the first, 843 s for the second.

Compared with `Cc1c(Cl)cccc1NC(=O)N1CC(n2cnnc2-c2ccccc2)C1`, `O=C(Nc1ccccc1)N1CCN(Cc2nc(-c3ccccc3)cs2)CC1` is lower in RP-LC retention time: 720 s for the first, 612 s for the second.

Compared with `O=C(O)CCc1conc1-c1ccccc1F`, `CNC(=O)c1sc(-c2ccccc2)nc1C` is higher in RP-LC retention time: 712 s for the first, 726 s for the second.

Compared with `CCCCOc1ccccc1C1NC(=O)NC(C)=C1C(=O)OCc1ccco1` (centres undefined), `CCCOC(=O)C1=C(C)NC2=C(C(=O)C(C(=O)OC)C(C)C2)C1c1cccc(OC)c1` (centres undefined) is lower in RP-LC retention time: 938 s for the first, 934 s for the second.

Going from `Cc1nn(-c2ccccc2)c2c1N(CCCC(=O)NCc1ccc(N(C)C)cc1)C(=O)CS2` to `CCCCNC(=O)CN1C(=O)CCn2nc(-c3cn(C)c4ccccc34)cc21`, the RP-LC retention time rises from 628 s to 771 s.

Going from `Cc1nnc(C2CCCCCN2C(=O)Cc2c(C)noc2C)o1` (centres undefined) to `CNC(=O)c1noc([C@@H]2CC(F)(F)CN2C(=O)CCC2CCCC2)n1`, the RP-LC retention time rises from 658 s to 848 s.

Going from `CN1C2CCC1CC(OC(c1ccc(F)cc1)c1ccc(F)cc1)C2` (centres undefined) to `O=C(c1cccnc1)N1CCC2(CC1)Nc1cc(F)ccc1-n1cccc12`, the RP-LC retention time falls from 838 s to 792 s.

Compared with `C[C@H]1CC[C@]2(NC1)O[C@H]1C[C@H]3[C@@H]4CC[C@H]5C[C@@H](O)CC[C@]5(C)[C@H]4CC[C@]3(C)[C@H]1[C@@H]2C`, `CC1CCCCC1NC(=O)C1(C)Cn2c(cc3occc32)C(=O)N1Cc1cccnc1` (centres undefined) is lower in RP-LC retention time: 776 s for the first, 659 s for the second.

Going from `CCc1cccc(NC(=O)Cn2c(=O)n(-c3ccc(C)cc3)c(=O)c3c2cc(C)n3C)c1` to `CCc1ccc(-c2noc(Cn3c(=O)n(-c4ccccc4F)c(=O)c4sccc43)n2)cc1`, the RP-LC retention time rises from 975 s to 1100 s.

Going from `CC(C(=O)NCc1nc2ccccc2[nH]1)n1nc(-c2cccs2)ccc1=O` (centres undefined) to `O=C(NCCn1nc(-n2cccn2)ccc1=O)c1cc2ccccc2o1`, the RP-LC retention time rises from 576 s to 669 s.

Compared with `CCC1CN2C=NC(N3CCN(C(=O)Nc4cccc(F)c4C)CC3)=CC2=N1` (centres undefined), `CN1CCc2[nH]cnc2C12CCN(C(=O)Nc1ccccc1C(F)(F)F)C2` (centres undefined) is lower in RP-LC retention time: 671 s for the first, 569 s for the second.

First: CCn1nnc(NCc2ccc(-c3ccc(Cl)cc3Cl)o2)n1
Second: Cc1cc(-c2nnc(-c3ccco3)o2)c(C)n1CC(=O)NCc1ccccc1Cl
The RP-LC retention time of the first is higher: 1130 s for the first, 863 s for the second.

Going from `O=c1cc(-c2ccncc2)nc(N2CCCC2)n1Cc1ccccc1F` to `O=C(C1CCCN(c2nccnc2Oc2ccccc2)C1)N1CCN(c2ccccc2Cl)CC1` (centres undefined), the RP-LC retention time rises from 1220 s to 1240 s.

Compared with `O=C(NCc1nc(-c2ccc(NS(=O)(=O)c3ccc(F)cc3)cc2)no1)c1cccs1`, `O=C(c1cccs1)N1CCc2ccc(NS(=O)(=O)c3ccccc3Cl)cc2C1` is lower in RP-LC retention time: 867 s for the first, 804 s for the second.

Compared with `COc1ccccc1-c1nnc(-c2cccc(S(=O)(=O)N(C)C)c2)o1`, `COc1ccccc1N1CCN(c2cc(SCC(=O)Nc3ccc(C#N)cc3)ncn2)CC1` is higher in RP-LC retention time: 840 s for the first, 890 s for the second.

Compared with `O=S(=O)(c1ccc2nc(N3CCN(C4CCCCC4)CC3)ccc2c1)N1CCCCC1`, `CCN(CC)S(=O)(=O)c1ccc2c(c1)N(CC(=O)N1CCOCC1)C(=O)C1CCCCN21` (centres undefined) is higher in RP-LC retention time: 734 s for the first, 777 s for the second.

First: COc1cccc(CNC(=O)C2CCCN(C(=O)C3Sc4ccccc4NC3=O)C2)c1 (centres undefined)
Second: CN1CCCc2cc(C(=O)NCc3ccccc3)sc21
The RP-LC retention time of the first is lower: 737 s for the first, 882 s for the second.

First: O=C(CCN1C(=O)C2C3C=CC(C3)C2C1=O)N1CCN(c2ccccn2)CC1 (centres undefined)
Second: CN(C)CCNC(=O)C1CCN(c2ccc3nnc(-c4ccccc4Cl)n3n2)CC1
The RP-LC retention time of the first is lower: 572 s for the first, 589 s for the second.

Going from `Cc1c(C(=O)NC2CC2)cnn1-c1ccc(-c2nc(C(C)C)no2)cn1` to `Cc1c(C(=O)NC2CC2)cnn1-c1cc(-c2nc(C(C)C)no2)ccn1`, the RP-LC retention time rises from 849 s to 940 s.

First: CC(C)N1C(=O)c2cccnc2Sc2cc(NC(=O)c3ccc(Cl)cc3)ccc21
Second: CCOC(=O)c1ccc(NC(=O)NCC(c2cccnc2)c2cn(C)c3ccccc23)cc1 (centres undefined)
The RP-LC retention time of the first is higher: 964 s for the first, 824 s for the second.

First: COC(=O)c1ncn2c1C(=O)N(c1cc(C)ccc1C)C(C)(C(=O)NC1CCCC1)C2 (centres undefined)
Second: O=C(NCc1ccc(F)c(Cl)c1)c1csc(C(=O)NC2CC2)n1
The RP-LC retention time of the first is lower: 718 s for the first, 828 s for the second.

Compared with `COc1ccccc1NC(=O)C1CCc2nc(N3CCOCC3)ncc2C1` (centres undefined), `FC1(c2nc(-c3ccccc3)no2)CCN(C2CCOCC2)CC1` is lower in RP-LC retention time: 741 s for the first, 636 s for the second.

Compared with `CCCCN1CCN(Cc2nc(-c3ccc(N4CCSCC4)nc3)no2)CC1`, `CCC(=O)N1CCc2cc(-c3ccc(C(=O)NCCN4CCN(CC)CC4)cc3)ccc21` is lower in RP-LC retention time: 653 s for the first, 604 s for the second.

First: COC(=O)c1cc2c(cc1NC(=O)c1cc(-c3cccnc3)nc3ccccc13)OCO2
Second: O=C(Nc1ccc2c(c1)OCO2)C(=O)c1cccn1Cc1ccccc1
The RP-LC retention time of the first is lower: 884 s for the first, 986 s for the second.

First: CCc1ccccc1S(=O)(=O)N1CCc2nc[nH]c2C1
Second: Cn1cc(C2=CCN(S(=O)(=O)c3cccc4nsnc34)CC2)c2cccnc21
The RP-LC retention time of the first is lower: 612 s for the first, 893 s for the second.

Going from `Cc1cc2nn(CC(=O)Nc3ccccc3)c(=O)n2c(Nc2ccccc2)n1` to `C#CCCOC(=O)Nc1ccccc1`, the RP-LC retention time falls from 965 s to 878 s.

Compared with `Cn1c(=O)n(C2CCN(Cc3ccsc3)CC2)c2ncncc21`, `COc1ccccc1N1CCN(CCCNc2c(C)c(=O)n(C)c(=O)n2C)CC1` is higher in RP-LC retention time: 552 s for the first, 646 s for the second.

Compared with `C=CCN1CCc2cccc3c2[C@H]1Cc1ccc(O)c(O)c1-3`, `CC1CN(C(=O)NCC2CCCO2)c2ccccc2O1` (centres undefined) is higher in RP-LC retention time: 659 s for the first, 754 s for the second.

For `COc1cc(-c2nc3ncccn3c2NC2CCC(C)CC2)ccc1OC(C)C` (centres undefined), the RP-LC retention time was 868 s.
